# From publication PMC10897926 (Journal of Natural Products, 2024)
# Read-outs that look alike come from different tables or passages of the source.
# How the values were obtained:
# [1] = system: P. falciparum (strain W2) asexual blood stage parasites; test: microbe, parasite or virus in culture; format: cell-based, Plasmodium falciparum
# P. vivax liver schizonts = test: microbe, parasite or virus in culture; format: cell-based, Plasmodium vivax
# [2] = system: primary human hepatocytes
# P. vivax hypnozoites = test: microbe, parasite or virus in culture; format: cell-based, Plasmodium vivax
# in vitro [3] = conditions: human
# in vitro [4] = conditions: human; remark: listed apart in the source
# [5] = Plasmodium vivax, Hepatocyte, 288 h, read-out: P. vivax schizont EC50
# [6] = Plasmodium vivax, read-out: P. vivax schizont pEC50 (converted)
# [7] = Plasmodium vivax, Hepatocyte, 288 h, read-out: P. vivax hypnozoite EC50
# [8] = Plasmodium vivax, read-out: P. vivax hypnozoite pEC50 (converted)
smiles,measurement,setting,value
"CC(=O)OC[C@]12CCC(C)=C[C@H]1O[C@@H]1[C@H](O)[C@@H](OC(C)=O)[C@@]2(C)[C@]12CO2 [anguidine, diacetoxyscirpenol]",EC50,[1]; read-out: P. falciparum ABS (W2) EC50,6.16 nM
same,EC50,P. vivax liver schizonts; read-out: P. vivax schizont EC50,13.5 nM
same,PHH Tox pCC50,[2],380 (6.42 ± 0.31)
same,CC50,[2]; read-out: PHH Tox CC50,380 nM
same,P. vivax hypnozoite pEC50,P. vivax hypnozoites,36.3 (7.44 ± 0.75)
same,EC50,P. vivax hypnozoites; read-out: P. vivax hypnozoite EC50,36.3 nM
same,HepG2 Tox pCC50,HepG2 cells,27.5 (7.56 ± 0.08)
same,cytotoxicity (in words),HepG2 cells,cytotoxic
same,CC50,HepG2 cells; read-out: HepG2 Tox CC50,27.5 nM
CO[C@@H]1C[C@@H](C[C@H]2CC[C@H](C)[C@H]([C@@H](C)C(=O)O)O2)O[C@]2(O[C@](C)([C@H]3CC[C@@](C)([C@@H]4O[C@@H]([C@H]5O[C@@](O)(CO)[C@H](C)C[C@@H]5C)C[C@@H]4C)O3)C[C@H]2C)[C@@H]1C [nigericin],EC50,P. vivax liver schizonts; [5],5.13 nM
same,EC50,P. vivax liver schizonts; [6],5.13 nM
same,CC50,in vitro [3]; PHH Tox CC50,> 200 nM
same,PHH Tox pCC50,[2]; human,>200 (6.70 ± 0.00)
same,EC50,P. vivax hypnozoites; [7],12.3 nM
same,EC50,P. vivax hypnozoites; [8],12.3 nM
COc1ccc(C[C@H](N)C(=O)N[C@H]2[C@@H](O)[C@H](n3cnc4c(N(C)C)ncnc43)O[C@@H]2CO)cc1 [puromycin],EC50,P. vivax liver schizonts; [5],2290 nM
same,EC50,P. vivax liver schizonts; [6],2290 nM
same,CC50,in vitro [4]; HepG2 Tox CC50,398 nM
same,CC50,in vitro [4]; HepG2 Tox pCC50,398 nM
same,CC50,in vitro [3]; PHH Tox CC50,1740 nM
same,CC50,in vitro [3]; PHH Tox pCC50,1740 nM
same,EC50,P. vivax hypnozoites; [7],776 nM
same,EC50,P. vivax hypnozoites; [8],776 nM
C[C@H]1[C@@H](O)O[C@@H]2O[C@@]3(C)CC[C@H]4[C@H](C)CC[C@@H]1[C@@]24OO3 [dihydroartemisinin],EC50,"[1]; Plasmodium falciparum, W2, 72 h, read-out: P. falciparum ABS (W2) EC50",1.44 nM
same,EC50,"[1]; Plasmodium falciparum, W2, 72 h, read-out: P. falciparum ABS (W2) pEC50 (converted)",1.45 nM
